Reference: article PMC2099433, “The binding site for neohesperidin dihydrochalcone at the human sweet taste receptor” (BMC Structural Biology, 2007)
Where a SMILES comes first, the peptide text is derived from it.

Biological target: T1, hTAS1R2 + hTAS1R3 F624L^2.61 (Homo sapiens, UniProt Q7RTX0+Q8TE23, F624L)
T1 construct: expressed in transfected cells; host or cells: HEK293T cells stably expressing G16Gust44
T1 sequence (Q8TE23 20-839): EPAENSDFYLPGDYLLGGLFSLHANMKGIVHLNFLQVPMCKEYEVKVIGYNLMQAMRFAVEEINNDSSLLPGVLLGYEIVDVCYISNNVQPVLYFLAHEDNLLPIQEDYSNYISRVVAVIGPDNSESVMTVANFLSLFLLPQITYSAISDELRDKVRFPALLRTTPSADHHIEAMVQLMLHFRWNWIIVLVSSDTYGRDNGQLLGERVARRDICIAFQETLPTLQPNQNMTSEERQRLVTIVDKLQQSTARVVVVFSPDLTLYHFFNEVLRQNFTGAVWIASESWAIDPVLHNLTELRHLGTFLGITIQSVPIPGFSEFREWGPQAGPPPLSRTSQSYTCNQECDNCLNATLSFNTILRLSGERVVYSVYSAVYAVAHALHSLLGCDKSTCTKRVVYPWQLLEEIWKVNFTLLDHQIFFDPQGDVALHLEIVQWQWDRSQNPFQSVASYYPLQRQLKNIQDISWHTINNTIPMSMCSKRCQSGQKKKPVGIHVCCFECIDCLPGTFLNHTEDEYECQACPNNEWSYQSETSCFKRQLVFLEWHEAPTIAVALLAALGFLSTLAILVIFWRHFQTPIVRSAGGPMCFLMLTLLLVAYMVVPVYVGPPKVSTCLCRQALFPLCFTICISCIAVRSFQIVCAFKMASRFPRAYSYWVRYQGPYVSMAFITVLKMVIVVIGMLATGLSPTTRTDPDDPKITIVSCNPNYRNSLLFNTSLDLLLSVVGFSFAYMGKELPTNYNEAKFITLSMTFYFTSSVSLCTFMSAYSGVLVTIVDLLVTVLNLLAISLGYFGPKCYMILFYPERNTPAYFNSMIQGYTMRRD
T1 sequence (Q7RTX0 21-852 F624L): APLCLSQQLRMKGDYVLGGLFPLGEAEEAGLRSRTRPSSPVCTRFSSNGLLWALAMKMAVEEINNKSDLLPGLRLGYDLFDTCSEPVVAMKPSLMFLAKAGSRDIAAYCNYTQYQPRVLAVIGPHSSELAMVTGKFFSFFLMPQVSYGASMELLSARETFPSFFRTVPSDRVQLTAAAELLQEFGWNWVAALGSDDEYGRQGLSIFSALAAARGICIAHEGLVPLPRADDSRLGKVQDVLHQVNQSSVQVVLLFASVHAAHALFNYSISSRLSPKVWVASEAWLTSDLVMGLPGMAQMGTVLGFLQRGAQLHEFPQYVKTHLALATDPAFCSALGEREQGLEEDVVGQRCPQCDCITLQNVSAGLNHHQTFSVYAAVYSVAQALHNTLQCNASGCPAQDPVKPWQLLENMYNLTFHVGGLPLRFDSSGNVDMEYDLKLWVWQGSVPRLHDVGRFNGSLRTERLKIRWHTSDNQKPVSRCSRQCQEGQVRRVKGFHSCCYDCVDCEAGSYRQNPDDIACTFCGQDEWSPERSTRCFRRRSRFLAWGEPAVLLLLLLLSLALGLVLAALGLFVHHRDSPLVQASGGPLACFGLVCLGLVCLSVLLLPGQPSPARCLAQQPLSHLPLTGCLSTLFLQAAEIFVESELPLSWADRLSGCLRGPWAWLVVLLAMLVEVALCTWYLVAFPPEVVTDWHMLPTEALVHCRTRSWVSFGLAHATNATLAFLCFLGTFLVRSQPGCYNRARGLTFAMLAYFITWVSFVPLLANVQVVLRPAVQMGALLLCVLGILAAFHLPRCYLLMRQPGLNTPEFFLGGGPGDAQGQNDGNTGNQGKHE
Test: Calcium response (FLIPR), hTAS1R3 mutant coexpressed with hTAS1R2
Type: cell-based
Conditions: variant F624L^2.61; for EC50: (>) EC50 not calculable because saturation is not reached; for Emax: read-out: maximal signal (% of wt)
How it was run: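 HEK293T cells stably expressing chimeric G16Gust44 were transiently transfected with C-terminally HSV-tagged hTAS1R2 and mutant hTAS1R3, then loaded 24 h later with Fluo4-AM for 1 h. Calcium mobilization after sweet-tastant application was read by FLIPR, mock-corrected and expressed as ΔF/F.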

EC50	Emax	Structure (SMILES)
1400 ± 200 µM	21 ± 4%	COC(=O)[C@H](Cc1ccccc1)NC(=O)[C@@H](N)CC(=O)O [aspartame] (HELM PEPTIDE1{D.F.[CO[*:1]]}$$$$V2.0)
> 1000 µM	35 ± 70%	COc1ccc(CCC(=O)c2c(O)cc(O[C@@H]3O[C@H](CO)[C@@H](O)[C@H](O)[C@H]3O[C@@H]3O[C@@H](C)[C@H](O)[C@@H](O)[C@H]3O)cc2O)cc1O [NHDC, neohesperidin dihydrochalcone]
